Data on 14 compounds can be found in US9133140B2, “Cycloalkylamne derivatives” (Daiichi Sankyo Company, Limited, priority 2008, dated 2015).

One experiment has as its target T1, human CaSR (Homo sapiens, UniProt P41180).
T1 construct: TT cells are cell lines that express human CaSR; endogenous in cells; host or cells: TT cells (human medullary thyroid carcinoma cell line)
T1 sequence (P41180 20-1078): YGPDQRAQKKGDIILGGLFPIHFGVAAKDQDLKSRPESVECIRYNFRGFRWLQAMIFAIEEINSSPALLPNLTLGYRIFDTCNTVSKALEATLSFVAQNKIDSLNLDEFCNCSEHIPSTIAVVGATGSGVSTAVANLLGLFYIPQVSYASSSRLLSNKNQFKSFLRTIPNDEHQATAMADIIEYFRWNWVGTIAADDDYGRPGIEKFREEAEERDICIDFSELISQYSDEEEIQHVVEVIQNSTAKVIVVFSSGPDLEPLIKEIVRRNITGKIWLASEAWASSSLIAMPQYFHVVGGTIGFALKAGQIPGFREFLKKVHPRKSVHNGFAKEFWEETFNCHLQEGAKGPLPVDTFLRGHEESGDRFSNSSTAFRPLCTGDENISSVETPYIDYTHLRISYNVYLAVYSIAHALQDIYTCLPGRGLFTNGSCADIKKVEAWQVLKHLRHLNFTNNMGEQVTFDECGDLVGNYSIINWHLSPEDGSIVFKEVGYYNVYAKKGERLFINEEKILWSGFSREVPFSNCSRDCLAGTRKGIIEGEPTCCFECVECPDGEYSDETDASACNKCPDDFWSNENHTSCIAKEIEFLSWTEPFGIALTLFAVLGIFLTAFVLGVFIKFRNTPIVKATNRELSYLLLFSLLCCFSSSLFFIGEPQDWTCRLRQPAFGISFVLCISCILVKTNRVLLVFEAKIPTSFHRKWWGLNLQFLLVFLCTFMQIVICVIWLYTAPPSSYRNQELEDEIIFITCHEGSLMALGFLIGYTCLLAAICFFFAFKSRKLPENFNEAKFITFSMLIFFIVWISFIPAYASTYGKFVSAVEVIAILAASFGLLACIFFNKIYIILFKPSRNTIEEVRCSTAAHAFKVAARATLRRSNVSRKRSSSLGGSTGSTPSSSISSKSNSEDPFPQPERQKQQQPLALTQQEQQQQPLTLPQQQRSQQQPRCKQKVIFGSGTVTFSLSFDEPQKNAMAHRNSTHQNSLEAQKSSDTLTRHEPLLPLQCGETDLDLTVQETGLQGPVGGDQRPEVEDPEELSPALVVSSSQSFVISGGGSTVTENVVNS
As to the kind of experiment: Human CaSR activity measurement test (intracellular calcium in TT cells). Particulars: [EC50 of test compound]/[EC50 of Compound A], intracellular calcium fluorescence. The format is cell-based. The method, then:
It is reported that human medullary thyroid carcinoma cell lines TT cells are cell lines that express human CaSR, and when CaSR is activated by extracellular calcium ions or the like, intracellular calcium ion concentration increases (Endocrinology 137: 3842-3848, 1996). Accordingly, an activating action of the test compounds with respect to human CaSR was evaluated by using the change in intracellular calcium concentration of TT cells as an indicator. TT cells were inoculated onto a black well/clear bottom 96 well plate (poly-D-lysine coat: manufactured by BD biosciences), and were cultured for approximately 24 hours in a F-12 Nutrient Mixture (Kaighn's modification) culture media containing 10% calf serum and 0.5% antibiotic antimycotic. […] Then, the plate was allowed to stand for 1 hour at 37° C. Subsequently, the above-mentioned plate was placed onto FlexStation (manufactured by Molecular Device) or FlexStation 3 (manufactured by Molecular Device), and fluorescence intensity before and after treatment with the test compound dissolved in a buffer for measurement (126 mM NaCl, 4 mM KCl, 1 mM MgCl2, 20 mM HEPES (pH 7.4), 5.6 mM glucose, 2 mM CaCl2) was measured. […] Nagano, Pharmacol. […] WO 1996/12697) as a comparative compound, by conducting a similar procedure. From the following equation, the human CaSR activity of each of the test compounds was calculated as the relative activity with respect to Compound A. Relative activity with respect to Compound A=[EC50 of test compound]/[EC50 of Compound A]
In general terms: Calcium flux is commonly read through the fluorescence of an indicator in the cells.

Experiment [1] concerns calcium ion concentration in the blood. As to the kind of experiment: Measurement test for concentration of parathyroid hormone and calcium ion in rat blood. The format is in vivo. The conditions noted are these: read-out: reduction of calcium concentration in the blood. The procedure: Three male SD rats (manufactured by Japan SLC, Inc.) were orally administered with the test compound, and effects on the concentration of parathyroid hormone (PTH) in the blood and concentration of the calcium ion in the blood were studied.
The test compound was administered by dissolving or suspending it in a 0.5% methyl cellulose 400 (MC) solution or 0.5% MC solution containing 10% of ethanol. (In addition, Compound A used in Test Example 1 was administered as a MC suspension by dosage of 30 mg/kg, and was studied as a comparative example.) Blood was collected from the jugular vein under anesthesia with halothane or isoflurane, before administration of the test compound, and 2, 4, 6 or 8 and 24 hours after administration. Calcium ion concentration in the blood was measured using cartridge EG7+(manufactured by Fuso Chemical Co., Ltd.) and i-STAT 300F (manufactured by Fuso Chemical Co., Ltd.). In addition, plasma intact PTH concentration was measured using Rat intact PTH ELISA kit (manufactured by Immutopics).
The transition of calcium ion concentration in the blood over time from before administration to 24 hours after administration of each of the test compounds was plotted, and the decrease in calcium ion concentration in the blood from the value before administration was calculated as an area value.

[2] abbreviates: male SD rats, oral, 10 mg/kg, 4 hours after administration.
Setting [3] is: male SD rats, oral, 4 hours after administration.

Structures are written as SMILES. Where a name gives a salt, the structure may show the parent alone. Read-outs that look alike come from different tables or passages of the source.

As for `C[C@@H](N[C@H]1CC[C@@H](c2ccc(NCC(=O)O)cc2)C1)c1cccc2ccccc12` [Example 33, N-{4-[(1R,3S)-3-{[(1R)-1-(Naphthalen-1-yl)ethyl]amino}cyclopentyl]phenyl}glycine 0.4 hydrochloride], the “Relative activity with respect to Compound A” value (“Relative activity” for short) on human CaSR was found to be 0.23. For the same compound, the inhibition in vivo at 10 mg/kg in experiment [1] (po, 4 h) is at least 30%.

For the compound `C[C@@H](N[C@H]1CC[C@@H](c2ccc(OC(C)(C)C(=O)O)c(F)c2)C1)c1cccc2ccccc12` [Example 15, 2-{2-Fluoro-4-[(1R,3S)-3-{[(1R)-1-(naphthalen-1-yl)ethyl]amino}cyclopentyl]phenoxy}-2-methylpropanoic acid hydrochloride], at human CaSR, the “Relative activity” value came out at 0.38. The inhibition in vivo at 10 mg/kg in experiment [1] (setting [2]) is at least 30%.

Regarding `C[C@@H](NC1CC[C@@H](c2ccc(OCC(=O)O)cc2)C1)c1cccc2cc(F)ccc12` (stereo partly drawn) [Example 21, {4-[(1R)-3-{[(1R)-1-(6-Fluoronaphthalen-1-yl)ethyl]amino}cyclopentyl]phenoxy}acetic acid], the “Relative activity” value on human CaSR is on record as 0.38. In addition, in experiment [1] (setting [2]), the inhibition in vivo at 10 mg/kg is at least 30%.

Regarding `C[C@@H](N[C@H]1CC[C@@H](c2ccc(CC(=O)O)cc2)C1)c1cccc2ccccc12` [Example 8, {4-[(1R,3S)-3-{[(1R)-1-(Naphthalen-1-yl)ethyl]amino}cyclopentyl]phenyl}acetic acid hydrochloride], the “Relative activity” value at human CaSR amounted to 0.61. In addition, the inhibition in vivo at 10 mg/kg in experiment [1] (setting [2]) is at least 30%.

For the compound `C[C@@H](N[C@H]1CC[C@@H](c2ccc(CCC(=O)O)cc2)C1)c1ccc(F)c2ccccc12` [Example 27, 3-{4-[(1R,3S)-3-{[(1R)-1-(4-Fluoronaphthalen-1-yl)ethyl]amino}cyclopentyl]phenyl}propanoic acid hydrochloride], the “Relative activity” value on human CaSR was determined as 0.59. Also, the inhibition in vivo at 0.3 mg/kg in experiment [1] (setting [3]) was at least 20%.

In the case of `C[C@@H](N[C@H]1CC[C@H](c2ccc(OCC(=O)O)cc2)C1)c1ccc(F)c2ccccc12` [Example 28, {4-[(1S,3S)-3-{[(1R)-1-(4-Fluoronaphthalen-1-yl)ethyl]amino}cyclopentyl]phenoxy}acetic acid], at human CaSR, the “Relative activity” value is 0.17. The inhibition in vivo at 0.3 mg/kg in experiment [1] (setting [3]) is at least 20%.

For the compound `C[C@@H](N[C@H]1CC[C@@H](c2cccc(CC(=O)O)c2)C1)c1ccc(F)c2ccccc12` [Example 24, {3-[(1R,3S)-3-{[(1R)-1-(4-Fluoronaphthalen-1-yl)ethyl]amino}cyclopentyl]phenyl}acetic acid hydrochloride], the “Relative activity” value on human CaSR is 0.30. In addition, the inhibition in vivo at 0.3 mg/kg in experiment [1] (setting [3]) was at least 20%. Besides, the inhibition in vivo at 10 mg/kg in experiment [1] (setting [2]) was at least 30%.

As to `C[C@@H](N[C@H]1CC[C@@H](c2ccc(OC(C)(C)C(=O)O)cc2)C1)c1cccc2ccccc12` [Example 11, 2-Methyl-2-{4-[(1R,3S)-3-{[(1R)-1-(naphthalen-1-yl)ethyl]amino}cyclopentyl]phenoxy}propanoic acid hydrochloride], the “Relative activity” value at human CaSR turned out to be 0.60. The inhibition in vivo at 10 mg/kg in experiment [1] (setting [2]) was at least 30%.

Consider `C[C@@H](N[C@H]1CC[C@@H](c2ccc(CC(=O)O)cc2)C1)c1ccc(F)c2ccccc12` [Example 25, {4-[(1R,3S)-3-{[(1R)-1-(4-Fluoronaphthalen-1-yl)ethyl]amino}cyclopentyl]phenyl}acetic acid hydrochloride], for which the “Relative activity” value at human CaSR was 0.34. For the same compound, in experiment [1] (setting [3]), the inhibition in vivo at 0.3 mg/kg was at least 20%. Moreover, in experiment [1] (setting [2]), the inhibition in vivo at 10 mg/kg was at least 30%.

With `C[C@@H](N[C@H]1CC[C@@H](c2ccc(NCCC(=O)O)cc2)C1)c1cccc2ccccc12` [Example 34, N-{4-[(1R,3S)-3-{[(1R)-1-(Naphthalen-1-yl)ethyl]amino}cyclopentyl]phenyl}-β-alanine 0.5 hydrochloride], the “Relative activity” value at human CaSR came out at 0.26. In experiment [1] (po, 4 h), the inhibition in vivo at 10 mg/kg was at least 30%.

`C[C@@H](N[C@H]1CC[C@@H](c2ccc(-c3nn[nH]n3)cc2)C1)c1cccc2ccccc12` [Example 3, (1S,3R)-N-[(1R)-1-(Naphthalen-1-yl)ethyl]-3-[4-(2H-tetrazol-5-yl)phenyl]cyclopentanamine hydrochloride]: the “Relative activity” value at human CaSR came to 0.18. Moreover, the inhibition in vivo at 10 mg/kg in experiment [1] (setting [2]) is at least 30%.

Consider `C[C@@H](N[C@H]1CC[C@@H](c2ccc(SCC(=O)O)cc2)C1)c1cccc2ccccc12` [Example 36, ({4-[(1R,3S)-3-{[(1R)-1-(Naphthalen-1-yl)ethyl]amino}cyclopentyl]phenyl}thio)acetic acid hydrochloride], for which the “Relative activity” value on human CaSR stood at 0.15. The inhibition in vivo at 10 mg/kg in experiment [1] (setting [2]) was at least 30%.

As to `C[C@@H](N[C@H]1CC[C@@H](c2cccc(CC(=O)O)c2)C1)c1cccc2ccccc12` [Example 7, {3-[(1R,3S)-3-{[(1R)-1-(Naphthalen-1-yl)ethyl]amino}cyclopentyl]phenyl}acetic acid hydrochloride], on human CaSR, the “Relative activity” value is 0.26. Also, in experiment [1] (setting [2]), the inhibition in vivo at 10 mg/kg is at least 30%.

In the case of `C[C@@H](N[C@H]1CC[C@@H](c2ccc(OC(C)(C)C(=O)O)cc2)C1)c1ccc(F)c2ccccc12` [Example 31, 2-{4-[(1R,3S)-3-{[(1R)-1-(4-Fluoronaphthalen-1-yl)ethyl]amino}cyclopentyl]phenoxy}-2-methylpropanoic acid hydrochloride], the “Relative activity” value on human CaSR amounted to 0.36. Moreover, in experiment [1] (setting [3]), the inhibition in vivo at 0.3 mg/kg is at least 20%. Besides, the inhibition in vivo at 10 mg/kg in experiment [1] (setting [2]) is at least 30%.
